Measured values: US20130011495A1, “ANTIFUNGAL COMPOUNDS AND USE THEREOF” (priority 2009, published 2013)
“Also recorded” adds a separate entry of the source. Where two headings read alike, the source gives them in different places.

How the values were obtained:
[1] = tested on: Phaeomoniella chlamydospora; test: Mycelial growth on solid medium; conditions: for inhibition of growth, dose dependence: 5, 10 and 20 mM (whatever concentration); for inhibition of growth, dose dependence / inhibition of growth: FIG. 5 A; for inhibition of fungal development: FIG. 6 A
[2] = tested on: Phaeoacremonium aleophilum; test: Mycelial growth on solid medium; conditions: for inhibition of development, dose dependence: 5, 10 and 20 mM
[3] = tested on: esca; conditions: 18.5 g/L injected into the trunk; cited from earlier work
[4] = tested on: Eutypa lata; conditions: pH 4.1; cited from earlier work
[5] = cited from earlier work
[6] = tested on: leaves; test: Tests of phytotoxicity (upper limits of amounts); type: in vivo
Experimental: According to the invention, the upper limits of amounts of the different products were determined in tests of phytotoxicity. First symptoms appear on the leaves at these amounts. […] These amounts can be slightly different or even greater depending on the sensitivity of the plant.

[7] = in vivo; cited from earlier work
[8] = tested on: Inonotus obliquus; conditions: concentrations of 0.9 and 9 mM; cited from earlier work
[9] = sulfate 40 mM in BNM, solid medium pH 4.2, 18 days
[10] = sulfate 40 mM in BNM, solid medium pH 4.2, 12 days
[11] = ferrous salt 10 mM, solid medium pH 4.2, 18 days
[12] = ferrous salt 10 mM, FIG. 5 B, solid medium pH 4.2, 12 days
[13] = ferrous salt 20 mM, FIG. 5 B, solid medium pH 4.2, 12 days
[14] = 14C-labeled SA at 10 μM, after 4 hours of absorption
[15] = Phaeomoniella chlamydospora, 432 h, pH 4.2, read-out: inhibition of growth
[16] = Phaeoacremonium minimum, 288 h, pH 4.2, read-out: inhibition of growth
[17] = Phaeomoniella chlamydospora, 432 h, pH 4.2, read-out: inhibition of mycelial development
[18] = ferrous salt 5 mM, solid medium pH 4.2, 18 days
[19] = 40 mM, used as the only nitrogen source (results not shown)

Molecule: O=S(=O)([O-])[O-].[Cu+2] [CuSO4, copper sulfate]
- inhibition [1, 9]: 100% inhibition
- inhibition ([1]; sulfate 40 mM in BNM, solid medium pH 4.2, 18 days, listed as copper sulfate): completely inhibit
- inhibition [2, 10]: 100% inhibition
- inhibition ([2]; sulfate 40 mM in BNM, solid medium pH 4.2, 12 days, listed as copper sulfate): completely inhibit

Molecule: O=S(=O)([O-])[O-].[Mg+2] [MgSO4, magnesium sulfate]
- inhibition [1, 9]: — (—: no inhibition)
- inhibition [2, 10]: — (—: no inhibition)

Molecule: O=C([O-])c1ccccc1O.[K+]
- efficacy on esca [3]: 45.4%

Molecule: iron chloride
- inhibition of growth, dose dependence [1]: dose-dependent inhibition; also recorded: comparable to that obtained with iron sulfate
- inhibition of growth [1, 11]: not the case
- inhibition of development, dose dependence ([2]; FIG. 5 B): dose-dependent inhibition
- inhibition of growth [2, 12]: 75%
- inhibition of growth [2, 13]: completely inhibited

Molecule: O=C(O)c1ccccc1O [salicylic acid, 2-hydroxybenzoic acid]
- threshold value of antifungal action [4]: ~0.1 mM
- concentration detected in phloem sap [5, 14]: 100 µM
- concentration detected in xylem sap [5, 14]: 0.67 µM
- concentration factor in the phloem ([5]; pH between 4.6 and 5.0): ~10
- inhibition at 500 µM [1, 15]: 10%
- inhibition at 1000 µM [1, 15]: 28%
- inhibition of fungal development ([1]; salicylic acid 0.05 mM, solid medium pH 4.2, 18 days): does not inhibit
- inhibition of fungal development ([1]; salicylic acid 0.1 mM, solid medium pH 4.2, 18 days): does not inhibit
- inhibition at 500 µM [2, 16]: 50%
- inhibition of development ([2]; salicylic acid 0.05 mM, FIG. 6 B, solid medium pH 4.2, 12 days): slightly inhibited
- inhibition of growth ([2]; salicylic acid 1 mM, FIG. 6 B, solid medium pH 4.2, 12 days): inhibited completely

Molecule: CCO[PH](=O)O [fosetyl-aluminum, aluminum tris-O-ethylphosphonate]
- upper limit of amount determined in tests of phytotoxicity (first symptoms appear on the leaves) ([6]; in vivo): 81 mM
- pH of maximum absorption [7]: 5.0
- time of detection in the phloem exudate after application [7]: 30 min
- inhibition at 1000 µM [1, 17]: 6%
- inhibition at 1700 µM [1, 17]: 14%
- inhibition at 2700 µM [1, 17]: 46%
- inhibition at 3400 µM [1, 17]: 86%
- inhibition of mycelial development ([1]; fosetyl-aluminum 0.3 mM, FIG. 7 A, solid medium pH 4.2, 18 days): no effect
- inhibition at 1700 µM [2, 16]: ~6%
- inhibition at 2700 µM [2, 16]: 30%
- inhibition at 3400 µM [2, 16]: 45%
- inhibition of growth ([2]; fosetyl-aluminum 0.3 mM, FIG. 7 B, solid medium pH 4.2, 12 days): no effect
- inhibition of growth ([2]; fosetyl-aluminum 1 mM, FIG. 7 B, solid medium pH 4.2, 12 days): no effect

Molecule: O=S(=O)([O-])[O-].[K+].[K+] [K2SO4, potassium sulfate]
- inhibition [1, 9]: — (—: no inhibition)
- inhibition [2, 10]: — (—: no inhibition)

Molecule: CC(=O)[O-].CC(=O)[O-].[Fe+2] [iron acetate]
- inhibition of growth, dose dependence [1]: dose-dependent inhibition
- inhibition of growth [1, 18]: 40%
- inhibition of growth [1, 11]: completely inhibited
- inhibition of development, dose dependence ([2]; FIG. 5 B): dose-dependent inhibition
- inhibition of growth [2, 12]: 45%
- inhibition of growth [2, 13]: completely inhibited

Molecule: N.N.O=S(=O)(O)O [ammonium sulfate]
- growth [1, 19]: slows the growth
- inhibition [1, 9]: — (—: no inhibition)
- growth [2, 19]: slows the growth
- inhibition [2, 10]: — (—: no inhibition)

Molecule: N[C@@H](CS)C(=O)O [cysteine, L-cysteine]
- inhibition of development [8]: inhibits the development
- inhibition at 500 µM [1, 15]: 0%
- inhibition at 1000 µM [1, 15]: 13%
- inhibition at 5000 µM [1, 15]: 34%
- inhibition at 10000 µM [1, 15]: 80%
- inhibition at 500 µM [2, 16]: 11%
- inhibition at 1000 µM [2, 16]: 18%
- inhibition at 5000 µM [2, 16]: 24%
- inhibition at 10000 µM [2, 16]: 37%

Molecule: O.O.O.O.O.O.O.O=S(=O)([O-])[O-].[Fe+2] [iron sulfate]
- upper limit of amount determined in tests of phytotoxicity (first symptoms appear on the leaves) ([6]; concentration in the composition): 160 mM
- inhibition of growth, dose dependence [1]: dose-dependent inhibition
- inhibition ([1]; FeSO4 1 mM in BNM, solid medium pH 4.2, 18 days): 4% inhibition
- inhibition ([1]; FeSO4 2.5 mM in BNM, solid medium pH 4.2, 18 days): 21% inhibition
- inhibition ([1]; FeSO4 5 mM in BNM, solid medium pH 4.2, 18 days): 64% inhibition
- inhibition ([1]; FeSO4 10 mM in BNM, solid medium pH 4.2, 18 days): 95% inhibition
- inhibition of growth [1, 18]: 65%
- inhibition of growth [1, 11]: not the case
- inhibition [1, 9]: completely inhibit
- inhibition ([1]; sulfate 40 mM in BNM, solid medium pH 4.2, 18 days, listed as FeSO4): 100% inhibition
- inhibition of development, dose dependence ([2]; FIG. 5 B): dose-dependent inhibition
- inhibition ([2]; FeSO4 1 mM in BNM, solid medium pH 4.2, 12 days): 15% inhibition
- inhibition ([2]; FeSO4 2.5 mM in BNM, solid medium pH 4.2, 12 days): 23.5% inhibition
- inhibition ([2]; FeSO4 5 mM in BNM, solid medium pH 4.2, 12 days): 33% inhibition
- inhibition ([2]; FeSO4 10 mM in BNM, solid medium pH 4.2, 12 days): 85% inhibition
- inhibition of growth ([2]; ferrous salt 5 mM, FIG. 5 B, solid medium pH 4.2, 12 days): more inhibited with iron sulfate than with iron chloride and acetate
- inhibition of growth [2, 12]: 75%
- inhibition of growth [2, 13]: slight development
- inhibition [2, 10]: completely inhibit
- inhibition ([2]; sulfate 40 mM in BNM, solid medium pH 4.2, 12 days, listed as FeSO4): 100% inhibition
